PubChem BioAssay AID248 (DTP/NCI, 2004)
Inconclusive results and toxic doses are left out. No stated cut-off is given here; in the data, active means T/C of 150% or more; inactive means T/C below 125%.

Tested on: L1210 leukemia ip in BDF1 mice, survival T/C
Assay: NCI In Vivo Anticancer Drug Screen. Data for tumor model L1210 Leukemia (intraperitoneal) in B6D2F1 (BDF1) mice
Conditions: endpoint: mean survival time, higher = longer survival
Method in brief: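 Value reflects the ratio of survival in compound-treated mice to survival in vehicle-treated controls, with both groups carrying the same transplanted tumor.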

[1] = dose: 100.0 mg/kg/injection, schedule: Q04DX002 (ip), vehicle: Klucel (hydroxypropylcellulose) (HPC)
[2] = dose: 200.0 mg/kg/injection, schedule: Q04DX002 (ip), vehicle: Klucel (hydroxypropylcellulose) (HPC)
[3] = dose: 400.0 mg/kg/injection, schedule: Q04DX002 (ip), vehicle: Klucel (hydroxypropylcellulose) (HPC)
[4] = dose: 50.0 mg/kg/injection, schedule: Q01DX001 (ip), vehicle: Klucel (hydroxypropylcellulose) (HPC)
[5] = dose: 100.0 mg/kg/injection, schedule: Q01DX001 (ip), vehicle: Klucel (hydroxypropylcellulose) (HPC)
[6] = dose: 200.0 mg/kg/injection, schedule: Q01DX001 (ip), vehicle: Klucel (hydroxypropylcellulose) (HPC)
[7] = dose: 100.0 mg/kg/injection, schedule: Q01DX009 (ip), vehicle: saline with Tween-80
[8] = dose: 100.0 mg/kg/injection, schedule: Q04DX003 (ip), vehicle: saline with Tween-80
[9] = dose: 200.0 mg/kg/injection, schedule: Q01DX009 (ip), vehicle: saline with Tween-80
[10] = dose: 200.0 mg/kg/injection, schedule: Q04DX003 (ip), vehicle: saline with Tween-80
[11] = dose: 400.0 mg/kg/injection, schedule: Q01DX009 (ip), vehicle: saline with Tween-80
[12] = dose: 400.0 mg/kg/injection, schedule: Q04DX003 (ip), vehicle: saline with Tween-80
[13] = dose: 100.0 mg/kg/injection, schedule: Q01DX009 (ip), vehicle: Klucel (hydroxypropylcellulose) (HPC)
[14] = dose: 100.0 mg/kg/injection, schedule: Q04DX003 (ip), vehicle: Klucel (hydroxypropylcellulose) (HPC)
[15] = dose: 200.0 mg/kg/injection, schedule: Q04DX003 (ip), vehicle: Klucel (hydroxypropylcellulose) (HPC)
[16] = dose: 400.0 mg/kg/injection, schedule: Q04DX003 (ip), vehicle: Klucel (hydroxypropylcellulose) (HPC)
[17] = dose: 50.0 mg/kg/injection, schedule: Q01DX001 (ip), vehicle: carboxymethylcellulose (CMC)
[18] = dose: 100.0 mg/kg/injection, schedule: Q01DX001 (ip), vehicle: carboxymethylcellulose (CMC)
[19] = dose: 200.0 mg/kg/injection, schedule: Q01DX001 (ip), vehicle: carboxymethylcellulose (CMC)
[20] = dose: 400.0 mg/kg/injection, schedule: Q01DX001 (ip), vehicle: carboxymethylcellulose (CMC)
[21] = dose: 50.0 mg/kg/injection, schedule: Q01DX001 (ip), vehicle: saline
[22] = dose: 100.0 mg/kg/injection, schedule: Q01DX001 (ip), vehicle: saline
[23] = dose: 200.0 mg/kg/injection, schedule: Q01DX001 (ip), vehicle: saline
[24] = dose: 400.0 mg/kg/injection, schedule: Q01DX001 (ip), vehicle: saline
[25] = dose: 50.0 mg/kg/injection, schedule: Q01DX009 (ip), vehicle: saline with Tween-80

Measured: T/C

Cc1ccc(C(=O)Oc2ccc(N=C=S)cc2)cc1
inactive: dose: 75.0 mg/kg/injection, schedule: Q01DX001 (ip), vehicle: carboxymethylcellulose (CMC) 88 % of control | dose: 150.0 mg/kg/injection, schedule: Q01DX001 (ip), vehicle: carboxymethylcellulose (CMC) 90 % of control | dose: 300.0 mg/kg/injection, schedule: Q01DX001 (ip), vehicle: carboxymethylcellulose (CMC) 87 % of control

CCn1c2ccccc2c2cc(/C=C\[N+](=O)[O-])ccc21
inactive: [1] 91 % of control | [2] 94 % of control | [3] 97 % of control

NC(=O)c1cn[nH]c1NC(=O)/C=C/c1cccc([N+](=O)[O-])c1
inactive: [4] 92 % of control | [5] 96 % of control | [6] 91 % of control

CC(=O)Oc1ccc(C2CC(=O)OC2=O)cc1 (stereo not drawn)
inactive: [7] 105 % of control | [8] 92 % of control | [9] 97 % of control | [10] 91 % of control | [11] 87 % of control | [12] 92 % of control

CCN(CC)C(=O)N1CCN(C)CC1
inactive: [13] 101 % of control | [14] 94 % of control | dose: 200.0 mg/kg/injection, schedule: Q01DX009 (ip), vehicle: Klucel (hydroxypropylcellulose) (HPC) 106 % of control | [15] 98 % of control | dose: 400.0 mg/kg/injection, schedule: Q01DX009 (ip), vehicle: Klucel (hydroxypropylcellulose) (HPC) 104 % of control | [16] 96 % of control

CC1CCCC(CN=Cc2ccc(O)cc2O)[N-]1.CC1CCCC(CN=Cc2ccc(O)cc2O)[N-]1.[Ni+2] (stereo not drawn)
inactive: dose: 25.0 mg/kg/injection, schedule: Q04DX003 (ip), vehicle: saline with Tween-80 101 % of control | dose: 50.0 mg/kg/injection, schedule: Q04DX003 (ip), vehicle: saline with Tween-80 103 % of control | [8] 98 % of control

CCCC(C)C(O)C(C)C (stereo not drawn)
inactive: [17] 93 % of control | [18] 95 % of control | [19] 95 % of control | [20] 93 % of control

C[C@]12CC[C@@H]3c4ccc(O)cc4CC[C@H]3[C@@H]1C[C@@H](O)[C@@H]2O
inactive: dose: 25.0 mg/kg/injection, schedule: Q01DX001 (sc), vehicle: steriod suspending solution 104 % of control | dose: 50.0 mg/kg/injection, schedule: Q01DX001 (sc), vehicle: steriod suspending solution 107 % of control | dose: 100.0 mg/kg/injection, schedule: Q01DX001 (sc), vehicle: steriod suspending solution 109 % of control | dose: 125.0 mg/kg/injection, schedule: Q04DX003 (sc), vehicle: steriod suspending solution 100 % of control | dose: 200.0 mg/kg/injection, schedule: Q01DX001 (sc), vehicle: steriod suspending solution 106 % of control | dose: 250.0 mg/kg/injection, schedule: Q04DX003 (sc), vehicle: steriod suspending solution 105 % of control | dose: 500.0 mg/kg/injection, schedule: Q04DX003 (sc), vehicle: steriod suspending solution 100 % of control

C/C(=C\C(C)C)C1(C)C(=O)NC(=O)NC1=O
inactive: dose: 75.0 mg/kg/injection, schedule: Q01DX001 (ip), vehicle: other 96 % of control | dose: 150.0 mg/kg/injection, schedule: Q01DX001 (ip), vehicle: other 109 % of control | dose: 300.0 mg/kg/injection, schedule: Q01DX001 (ip), vehicle: other 105 % of control

Cc1nc(N)[nH]c(=O)c1CCc1ccccc1
inactive: [14] 100 % of control | [15] 94 % of control | [16] 100 % of control

O=C(O)C1CCCN1Cc1cc2ccccc2c2ccccc12 (stereo not drawn)
inactive: [21] 112 % of control | [22] 96 % of control | [23] 96 % of control | [24] 96 % of control

O=C1NCC(c2ccccc2)(c2ccccc2)C(=O)N1
inactive: [17] 94 % of control | [18] 94 % of control | [19] 91 % of control | [20] 86 % of control

CN1CCC(CNC(=O)c2ccccc2)c2ccccc21 (stereo not drawn)
inactive: [17] 100 % of control | [18] 96 % of control | [19] 92 % of control | [20] 102 % of control

CCOC(=O)N1c2ccccc2C=CC1/C(N)=N/O (stereo not drawn)
inactive: dose: 50.0 mg/kg/injection, schedule: Q01DX009 (ip), vehicle: Klucel (hydroxypropylcellulose) (HPC) 95 % of control | [13] 89 % of control | [14] 97 % of control | [15] 91 % of control

CCOC(=O)C(C(C)=O)C(c1ccc(O)cc1)C(C(C)=O)C(=O)OCC (stereo not drawn)
inactive: [22] 93 % of control | [23] 86 % of control | [24] 87 % of control

CCOC(=O)C(Br)CCCC(Br)C(=O)OCC (stereo not drawn)
inactive: [7] 90 % of control | [11] 89 % of control

Nc1ccccc1SC1CC(=O)N(c2ccc(Cl)cc2)C1=O (stereo not drawn)
inactive: [7] 91 % of control | [8] 89 % of control | [9] 88 % of control | [10] 101 % of control | [11] 98 % of control | [12] 97 % of control

Clc1cc(NCc2ccco2)ncn1
inactive: [4] 103 % of control | [5] 97 % of control | [6] 97 % of control

CCOC(=O)c1ccc(NCc2cnc3nc(N)nc(N)c3n2)cc1
inactive: dose: 3.0 mg/kg/injection, schedule: Q01DX009 (ip), vehicle: other 106 % of control | dose: 6.0 mg/kg/injection, schedule: Q01DX009 (ip), vehicle: other 102 % of control | dose: 12.0 mg/kg/injection, schedule: Q01DX009 (ip), vehicle: other 98 % of control | dose: 24.0 mg/kg/injection, schedule: Q01DX009 (ip), vehicle: other 98 % of control

O=C(NC1CCCCC1)c1ccc(Cl)cc1Cl
inactive: [25] 100 % of control | [7] 100 % of control | [9] 96 % of control

O=c1ccncn1Cc1ccccc1
inactive: [5] 100 % of control | [6] 97 % of control | dose: 400.0 mg/kg/injection, schedule: Q01DX001 (ip), vehicle: Klucel (hydroxypropylcellulose) (HPC) 91 % of control

O=C1CCc2c(Cl)sc(Cl)c21
inactive: [25] 91 % of control | [7] 88 % of control | [9] 96 % of control

Oc1ccc2ccccc2c1/C=N/Nc1ccc2ccccc2n1
inactive: dose: 25.0 mg/kg/injection, schedule: Q01DX001 (ip), vehicle: saline with Tween-80 97 % of control | dose: 50.0 mg/kg/injection, schedule: Q01DX001 (ip), vehicle: saline with Tween-80 101 % of control | dose: 100.0 mg/kg/injection, schedule: Q01DX001 (ip), vehicle: saline with Tween-80 98 % of control

CCOc1nn2nnnc2c2ccccc12
inactive: dose: 37.5 mg/kg/injection, schedule: Q04DX003 (ip), vehicle: saline with Tween-80 97 % of control | dose: 75.0 mg/kg/injection, schedule: Q04DX003 (ip), vehicle: saline with Tween-80 97 % of control | dose: 150.0 mg/kg/injection, schedule: Q04DX003 (ip), vehicle: saline with Tween-80 103 % of control

COP(=O)(OC)c1nc(P(=O)(OC)OC)nc(P(=O)(OC)OC)n1
inactive: [21] 98 % of control | [22] 93 % of control | [23] 93 % of control | [24] 93 % of control

CCCCCCC(O)CCCC (stereo not drawn)
inactive: [7] 117 % of control | [14] 91 % of control | [9] 110 % of control | [15] 88 % of control | [11] 122 % of control | [16] 88 % of control

Cc1cc(C)nc(NCCCCC(N)C(=O)O)n1 (stereo not drawn)
inactive: dose: 50.0 mg/kg/injection, schedule: Q04DX002 (ip), vehicle: saline 104 % of control | dose: 100.0 mg/kg/injection, schedule: Q04DX002 (ip), vehicle: saline 104 % of control | dose: 200.0 mg/kg/injection, schedule: Q04DX002 (ip), vehicle: saline 101 % of control

O=C(COc1ccc(Cl)cc1)Nc1ccccc1
inactive: [1] 109 % of control | [2] 98 % of control | [3] 103 % of control

CCCCN=C=S
inactive: dose: 100.0 mg/kg/injection, schedule: Q04DX002 (ip), vehicle: saline with Tween-80 104 % of control | dose: 200.0 mg/kg/injection, schedule: Q04DX002 (ip), vehicle: saline with Tween-80 91 % of control
